# Laboratory results from publication PMC3912015, “Synthetic Multivalent Antifungal Peptides Effective against Fungi” (PLoS ONE, 2014).
# Like-named read-outs stand apart in the source and are kept apart here. Bridge positions count the residues as written; N and C are the ends. Peptide text beside a SMILES is read from it. I, II: the chains in the order shown.
# How the values were obtained:
# Assay type in all cases: cell-based
# F. solani ATCC36031 = assay: microbe, parasite or virus in culture; settings: ATCC36031, 48 h
# C. albicans DF2672R = assay: microbe, parasite or virus in culture; settings: DF2672R, 48 h; read-out: MIC in µM against Ca 2672R
# Method: (§1) The yeast strains were cultivated and suspended in Sabouraud’s Dextrose (SD) broth diluted to one sixth at a starting OD600 = ∼0.08 in a flat-bottomed microtitre plate. A serial dilution of peptide in the same broth was mixed with the inoculum to give a final peptide concentration of 0.4–22 µM. The antifungal activity was assessed by monitoring the OD600 in cycles of 30 minutes and an orbital shaking at 100 rpm using an Infinite M200 microplate reader (Tecan Group Ltd., Switzerland) for 24/48 h at 37°C. Cultures without peptides were used as positive controls and broth alone or with 22 µM peptide served as negative controls. The minimum concentration required for complete inhibition was assessed by both visible observations as well as by measuring the OD600 and taken as the MIC. Each experiment was repeated in triplicates. For studying the effects of metal ions, SD broth was adjusted with appropriate concentrations of salts to yield a final concentration of 100 and 135 mM for NaCl and KCl and 0.5–2 mM for CaCl2 and MgCl2. MIC determinations were carried out as described above. C. albicans ATCC10231 cells and salts in broth were taken as a positive control. Salts alone (NaCl, KCl, and CaCl2 and MgCl2) in broth or with 22 µM peptide served as a negative control. The effect of 5% human serum on the activities of B4010 against two C. albicans clinical isolates was determined. The human male serum was centrifuged at 13,000 rpm for 10 mins in order to remove the lipids and the supernatant was collected. The MIC values against clinical isolates of C. albicans 2672R and C. albicans 1976R were determined both in standard medium (SD broth) as well as in standard medium containing 5% serum supernatant as before.
# C. albicans ATCC10231 = assay: microbe, parasite or virus in culture; settings: ATCC10231, 48 h; read-out: MIC in µM against Ca 10231
# Method: as §1
# C. albicans ATCC24433 = assay: microbe, parasite or virus in culture; settings: ATCC24433, 48 h
# Method: as §1
# C. albicans ATCC2091 = assay: microbe, parasite or virus in culture; settings: ATCC2091, 48 h
# Method: as §1
# C. albicans DF1976R = assay: microbe, parasite or virus in culture; settings: DF1976R, 48 h; read-out: MIC in µM against Ca DF1976R
# Method: as §1
# Haemolytic assay = settings: rabbit red blood cells, 440 µM, 4% rabbit erythrocytes, read-out: haemolysis
# Method: Haemolytic activity of peptides and antifungal drugs were determined against rabbit red blood cells. Briefly, serial dilution of peptides/antifungals in PBS was mixed with rRBC (final concentration 4% v/v), incubated at 37°C for 1 h and centrifuged at 3000 rpm for 10 minutes. The release of hemoglobin in the supernatant was monitored by measuring the hemoglobin absorbance at 576 nm. The readings from cell suspension in PBS (without any additives) or 1% Triton-X100 were used as 0% or 100% haemolysis.
# C. albicans ATCC 10231 = settings: Candida albicans, 6 h, 5.5 µM
# Method: For all the experiments, unless otherwise stated, C. albicans ATCC 10231 strain was used. B4010 (1 mg/mL) was incubated with trypsin (enzyme:peptide ratio 1∶100) at 37°C. 20 µL aliquot of this mixture was withdrawn at various time intervals (0.5, 1, 2, 4 and 6 h) and mixed with 1 µL of trypsin inhibitor. The antifungal activity of the peptide was determined by adding this mixture to 180 µL of inoculum and monitoring the growth at OD600 for 24 h. Similar experiments performed in the presence of trypsin/trypsin inhibitor (without B4010) were used as a positive control. For assessing the antifungal activity in TF, the peptide was dissolved in freshly collected rabbit TF and incubated at 37°C for 6 h. After incubation, an equal volume of an overnight culture of C. albicans (∼10^6 CFU/mL) was mixed with peptides in tear fluid and incubated at 37°C for 24 h. The final concentrations of the peptide were at 4.4, 8.8 and 22 µM. A 100 µL aliquot of serial dilutions (10^2 or 10^3 times) of this mixture were inoculated on a SD agar plate and then incubated for 48 h at 37°C. […]
# To study the effects of metal ions, the broth solution containing C. albicans (OD600 = 0.4–0.6) was adjusted to appropriate final concentrations of metal ions, incubated with 5.5 µM of B4010 for 6 h and the cell viability was determined as before after 48 h. […]
# F. solani DF1500 = assay: microbe, parasite or virus in culture; settings: 48 h
compound,measurement,setting,value
"CC(C)[C@H](NC(=O)[C@H](CCCCN)NC(=O)[C@H](CCCNC(=N)N)NC(=O)CNC(=O)[C@@H](N)CCCNC(=N)N)C(=O)N[C@H](C(=O)N[C@@H](CCCNC(=N)N)C(=O)N[C@@H](CCCNC(=N)N)C(=O)NCCCC[C@H](NC(=O)[C@H](CCCNC(=N)N)NC(=O)[C@H](CCCNC(=N)N)NC(=O)[C@@H](NC(=O)[C@@H](NC(=O)[C@H](CCCCN)NC(=O)[C@H](CCCNC(=N)N)NC(=O)CNC(=O)[C@@H](N)CCCNC(=N)N)C(C)C)C(C)C)C(=O)NCCCC[C@H](NC(=O)[C@H](CCCCNC(=O)[C@H](CCCNC(=N)N)NC(=O)[C@H](CCCNC(=N)N)NC(=O)[C@@H](NC(=O)[C@@H](NC(=O)[C@H](CCCCN)NC(=O)[C@H](CCCNC(=N)N)NC(=O)CNC(=O)[C@@H](N)CCCNC(=N)N)C(C)C)C(C)C)NC(=O)[C@H](CCCNC(=N)N)NC(=O)[C@H](CCCNC(=N)N)NC(=O)[C@@H](NC(=O)[C@@H](NC(=O)[C@H](CCCCN)NC(=O)[C@H](CCCNC(=N)N)NC(=O)CNC(=O)[C@@H](N)CCCNC(=N)N)C(C)C)C(C)C)C(=O)N[C@@H](CCCCN)C(=O)O)C(C)C [B4010] (I: H-RGRKVVRRKKK-OH / II: H-RGRKVVRRK / III: H-RGRKVVRR / IV: H-RGRKVVRR; amide I:9-IV:C, I:10-II:C, II:9-III:C; N-terminus and C-terminus assumed)",MIC,F. solani ATCC36031,1.4 µM
same,MIC,C. albicans DF2672R,0.37 µM
same,MIC,C. albicans ATCC10231,1.4 µM
same,MIC,C. albicans ATCC24433; read-out: MIC,1.4 µM
same,MIC,C. albicans ATCC24433; read-out: MIC in µM against Ca 24433,1.4 µM
same,MIC,C. albicans ATCC2091; read-out: MIC,0.7 µM
same,MIC,C. albicans ATCC2091; read-out: MIC in µM against Ca 2091,0.7 µM
same,MIC,C. albicans DF1976R,0.37 µM
same,"hemolysis at 1 h, 440 µM",Haemolytic assay,< 1%
same,viable cells,C. albicans ATCC 10231,40%
same,MIC,F. solani DF1500,1.4 µM
